This note sets out measurements from patent publication US20090124675A1, “INHIBITORS OF ANTI-APOPTOTIC PROTEINS” (Burnham Institute for Medical Research, priority 2007, published 2009).

For one data set, the system named is B6BCL-2 transgenic mouse. The data set is described as follows: In vivo test in the B6BCL-2 transgenic mouse. As to conditions: for Order of severity of toxic effect / Order of potency in terms of in vivo efficacy: rank order; for Order of severity of toxic effect: diminishing severity; for In vivo activity compared with known compounds / Order of potency in terms of in vivo efficacy: B6BCL-2 transgenic mouse. The method, then: Some compounds of the invention were also tested in vivo in the B6BCL-2 transgenic mouse. […] Gossypol is described, e.g., in U.S. Pat. No. 7,186,708. Apogossypol is described, e.g., in Meyers A. I.; Willemsen J. J., Tetrahedron Letters, vol. 37, No. 6, February, […], pp. 791-792.

For data set [1], the target named is T1, BCL-XL (Homo sapiens, UniProt Q07817).
T1 construct: Recombinant full length BCL-XL was produced; poly-His (N); made in house; host or cells: E. coli BL21
T1 sequence (Q07817 whole entry, species assumed): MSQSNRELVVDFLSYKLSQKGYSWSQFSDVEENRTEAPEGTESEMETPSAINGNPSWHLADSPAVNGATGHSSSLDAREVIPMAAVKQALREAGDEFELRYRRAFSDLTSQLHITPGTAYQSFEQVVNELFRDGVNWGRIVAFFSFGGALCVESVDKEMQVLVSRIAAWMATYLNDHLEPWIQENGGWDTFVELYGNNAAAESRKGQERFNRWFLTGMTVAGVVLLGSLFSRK
Briefly: Inhibition evaluated by measuring dissociation constant (Kd). The class given is binding. The procedure: (§1) Predicted binding mode of some compounds of the present invention to a BCL-2 protein is illustrated by FIG. 1 (binding of compound 11 shown below), FIG. 2A (binding of compound 1 shown above), and FIG. 2B (binding of compound 2 shown above). […] FIG. 4 and FIG. 5 show such NMR data for compounds 6 and 7 shown above. The inhibition was also evaluated by measuring dissociation constant (Kd) values for some compounds of the invention.

Another data set has as its system Triplet B6Bcl2 mice. Briefly: Delivery of Epalrestat in vivo, spleen weight in Triplet B6Bcl2 mice. The method, then:
Epalrestat (compound 11) was given to Triplet B6Bcl2 mice at a daily dose of 0.12 mmol/kg for 3 days (i.e., QDX3) through oral gavage. […] Both Epalrestat and the negative control were dissolved in PBS.
After 3 days, the spleens of the animals were removed.

The target in data set [2] is T1, BCL-XL. The data set is described as follows: NMR spectroscopy binding test (1D 1H / 2D [15N,1H]-HSQC). Particulars: NMR data, FIGS. 3-5; negative control. The method, then: as §1
For all NMR experiments, BCL-xL was exchanged into 50 mM phosphate buffer at pH 7.5 and measurements were performed at 30° C. 2D [^15N,^1H]-HSQC spectra for BCL-xL were measured with 0.5 mM samples of ^15N-labeled protein. All experiments were performed with a 600 MHz Bruker Avance spectrometer, both equipped with either a TXI probe or a TCI cryoprobe. In all experiments, dephasing of residual water signals was obtained with a WATERGATE sequence. In order to test the ability of test compounds to bind to Bcl-xL, a 25 μM sample of the protein was prepared and 1D ^1H NMR spectra were collected in absence and presence of test compounds. By observing the aliphatic region of the spectra, binding can be readily detected in these simple experiments due to chemical shift changes in active site methyl groups of Ile, Leu, Thr, Val or Ala (region between 0.8 and 0.3 ppm).

Broadly, the Kd is the free concentration of one partner at which half of the binding sites on the other are occupied at equilibrium, for simple one-to-one binding. A high value points to lower affinity.

“Also recorded” adds a separate entry of the source.

In the case of `Cc1cc2c(C(C)C)c(O)c(O)c(C=O)c2c(O)c1-c1c(C)cc2c(C(C)C)c(O)c(O)c(C=O)c2c1O` [gossypol], in the data set on B6BCL-2 transgenic mouse, the “Order of severity of toxic effect” value was “gossypol>>>apogossypol>compound 5=compound 3=compound 11”.

On BCL-XL [1], `CC(C(=O)O)N1C(=O)C(=CC=Cc2ccccc2)SC1=S` (stereo not shown) [Compound 10, 2-[4-oxo-5-(3-phenylallylidene)-2-thioxothiazolidin-3-yl]propanoic acid] had a Kd of 34.4 µM.

With `COc1cc2c(cc1OC)C(Br)=C(C=C1SC(=S)N(C(C(=O)O)C(C)C)C1=O)CC2` (stereo not shown) [Compound 5, 2-[5-((4-bromo-1,2-dihydro-6,7-dimethoxynaphthalen-3-yl)methylene)-4-oxo-2-thioxothiazolidin-3-yl]-3-methylbutanoic acid], in the data set with B6BCL-2 transgenic mouse, the “In vivo activity compared with known compounds” value was “equal to, or better than, known compounds gossypol and apogossypol”; the “Order of potency in terms of in vivo efficacy” value (from here on “Order of potency”) was “compound 11>compound 5>compound 3=apogossypol=gossypol”; the “Order of severity of toxic effect” value is on record as “gossypol>>>apogossypol>compound 5=compound 3=compound 11”.

As to `CC(=C\c1ccccc1)/C=C1/SC(=S)N(C(C(=O)O)c2ccccc2)C1=O` (stereo not shown) [Compound 1, 2-[5-(2-methyl-3-phenylallylidene)-4-oxo-2-thioxothiazolidin-3-yl]-2-phenylacetic acid], at BCL-XL [1], the Kd was found to be 1 µM.

At BCL-XL [1], `CC(=Cc1ccccc1)C=C1SC(=S)N(CC(=O)O)C1=O` [Compound 11, 2-[5-(2-methyl-3-phenylallylidene)-4-oxo-2-thioxothiazolidin-3-yl]acetic acid] came in with an equilibrium dissociation constant (Kd) of 11.8 µM. For the same compound, in the data set on B6BCL-2 transgenic mouse, the “In vivo activity compared with known compounds” value is “equal to, or better than, known compounds gossypol and apogossypol”; the “Order of potency” value is “compound 11>compound 5>compound 3=apogossypol=gossypol”; the “Order of severity of toxic effect” value was “gossypol>>>apogossypol>compound 5=compound 3=compound 11”. In addition, in the data set on Triplet B6Bcl2 mice (dosed orally or intraperitoneally), the Shrinkage of spleen entry was “induced shrinkage of spleen whether dosed orally or intraperitoneally”. Also, the “Weight loss or signs of toxicity via physical exam” value in the data set on Triplet B6Bcl2 mice (intraperitoneal and oral routes, listed as Epalrestat) is listed as “no weight loss or signs of toxicity via physical exam; also recorded: qualitatively safer than ApoG”. For the same compound, in the data set on Triplet B6Bcl2 mice (oral gavage, 0.12 mmol/kg daily for 3 days (QDX3), in PBS, spleens removed after 3 days), the “Spleen Weight” value is recorded as 193.9 mg. Besides, in the data set with Triplet B6Bcl2 mice (route comparison), the “% spleen shrinkage, intraperitoneal versus oral dosing” value is “Intraperitoneal injection induced more % shrinkage than oral dosing”. In addition, at BCL-XL [2], the “Binding to BCL-XL by NMR” value was “binding had occurred”.

For `COc1c(C=C2SC(=S)N(C(C(=O)O)C(C)C)C2=O)cc2ccccc2c1OC` (stereo not shown) [Compound 7, 2-[5-((1,2-dimethoxynaphthalen-3-yl)methylene)-4-oxo-2-thioxothiazolidin-3-yl]-3-methylbutanoic acid], at BCL-XL [2], the “Binding to BCL-XL by NMR” value is recorded as “binding had occurred”.

Regarding `COc1cc2cc(C=C3SC(=S)N(C(C(=O)O)C(C)C)C3=O)c(C)cc2c(C(C)C)c1OC` (stereo not shown) [Compound 3, 2-[5-(1-isopropyl-2,3-dimethoxy-7-methylnaphthalen-6-yl-methylene)-4-oxo-2-thioxothiazolidin-3-yl]-3-methylbutanoic acid], in the data set on B6BCL-2 transgenic mouse, the “In vivo activity compared with known compounds” value is “equal to, or better than, known compounds gossypol and apogossypol”; the “Order of potency” value is reported as “compound 11>compound 5>compound 3=apogossypol=gossypol”; the “Order of severity of toxic effect” value is “gossypol>>>apogossypol>compound 5=compound 3=compound 11”.

As for `Cc1cc2c(C(C)C)c(O)c(O)cc2c(O)c1-c1c(C)cc2c(C(C)C)c(O)c(O)cc2c1O` [apogossypol], in the data set with B6BCL-2 transgenic mouse, the “Order of potency” value was “compound 11>compound 5>compound 3=apogossypol=gossypol” and the “Order of severity of toxic effect” value is “gossypol>>>apogossypol>compound 5=compound 3=compound 11”.

With apogossypolone, the “In vivo activity compared with known compounds” value in the data set with B6BCL-2 transgenic mouse is listed as “not effective at all”.

In turn, `CC(C)C(C(=O)O)N1C(=O)C(=CC=Cc2ccccc2)SC1=S` (stereo not shown) [Compound 9, 3-methyl-2-[4-oxo-5-(3-phenylallylidene)-2-thioxothiazolidin-3-yl]butanoic acid] displayed a Kd at BCL-XL [1] of 10.6 µM.

Compound `CC(=C\c1ccccc1)/C=C1/SC(=S)N(C(C(=O)O)C(C)C)C1=O` (stereo not shown) [Compound 2, 3-methyl-2-[5-(2-methyl-3-phenylallylidene)-4-oxo-2-thioxothiazolidin-3-yl]butanoic acid] displayed a Kd on BCL-XL [1] of 5.7 µM.

Consider `CC(C)C(C(=O)O)N1C(=O)C(=CC2=C(Br)c3cc(O)c(O)cc3CC2)SC1=S` (stereo not shown) [Compound 6, 2-[5-((4-bromo-1,2-dihydro-6,7-dihydroxynaphthalen-3-yl)methylene)-4-oxo-2-thioxothiazolidin-3-yl]-3-methylbutanoic acid], for which the “Binding to BCL-XL by NMR” value at BCL-XL [2] is on record as “binding had occurred”.
